Test results: the kinase profiling compilation of Christmann-Franck et al. (2016)

Columns and labels:
Assay in all cases: radiometric filter-binding kinase assay, Kinase HotSpot
Settings in all cases: compound 0.5 µM; ATP 10 µM
AKT2 (human) = AKT2 (human) (UniProt P31751)
BLK (human) = BLK (human) (UniProt P51451)
BMX (human) = BMX (human) (UniProt P51813)
CDK4 CCND3 (human) = CDK4 CCND3 (human) (UniProt P30281+P11802)
CDK5 CDK5R1 p25 (human) = CDK5 CDK5R1 p25 (human) (UniProt Q00535+Q15078)
CDK7 CCNH MNAT1 (human) = CDK7 CCNH MNAT1 (human) (UniProt P50613+P51948+P51946)
CSNK1D (human) = CSNK1D (human) (UniProt P48730)
DCLK2 (human) = DCLK2 (human) (UniProt Q8N568)
DDR2 (human) = DDR2 (human) (UniProt Q16832)
DMPK (human) = DMPK (human) (UniProt Q09013)
EPHA7 (human) = EPHA7 (human) (UniProt Q15375)
EPHA8 (human) = EPHA8 (human) (UniProt P29322)
FGFR1 (human) = FGFR1 (human) (UniProt P11362)
FGFR3 (human) = FGFR3 (human) (UniProt P22607)
GRK4 (human) = GRK4 (human) (UniProt P32298)
GSG2 (human) = GSG2 (human) (UniProt Q8TF76)
HCK (human) = HCK (human) (UniProt P08631)
HIPK2 (human) = HIPK2 (human) (UniProt Q9H2X6)
IKBKE (human) = IKBKE (human) (UniProt Q14164)
INSRR (human) = INSRR (human) (UniProt P14616)
MAPK12 (human) = MAPK12 (human) (UniProt P53778)
MAPK13 (human) = MAPK13 (human) (UniProt O15264)
MARK4 (human) = MARK4 (human) (UniProt Q96L34)
MST4 (human) = MST4 (human) (UniProt Q9P289)
NEK7 (human) = NEK7 (human) (UniProt Q8TDX7)
PAK4 (human) = PAK4 (human) (UniProt O96013)
PKN2 (human) = PKN2 (human) (UniProt Q16513)
PLK1 (human) = PLK1 (human) (UniProt P53350)
PRKCB1 (human) = PRKCB1 (human) (UniProt P05771)
PRKCZ (human) = PRKCZ (human) (UniProt Q05513)
RPS6KA5 KD2 (human) = RPS6KA5 KD2 (human) (UniProt O75582)
RPS6KB2 (human) = RPS6KB2 (human) (UniProt Q9UBS0)
SGK2 (human) = SGK2 (human) (UniProt Q9HBY8)
SRC (human) = SRC (human) (UniProt P12931)
STK11 (human) = STK11 (human) (UniProt Q15831)
STK17A (human) = STK17A (human) (UniProt Q9UEE5)
TAOK1 (human) = TAOK1 (human) (UniProt Q7L7X3)
TGFBR2 (human) = TGFBR2 (human) (UniProt P37173)
WEE1 (human) = WEE1 (human) (UniProt P30291)
WNK2 (human) = WNK2 (human) (UniProt Q9Y3S1)
YES1 (human) = YES1 (human) (UniProt P07947)
ZAP70 (human) = ZAP70 (human) (UniProt P43403)

RPS6KB2 (human), sequence (Q9UBS0 whole entry, looked up): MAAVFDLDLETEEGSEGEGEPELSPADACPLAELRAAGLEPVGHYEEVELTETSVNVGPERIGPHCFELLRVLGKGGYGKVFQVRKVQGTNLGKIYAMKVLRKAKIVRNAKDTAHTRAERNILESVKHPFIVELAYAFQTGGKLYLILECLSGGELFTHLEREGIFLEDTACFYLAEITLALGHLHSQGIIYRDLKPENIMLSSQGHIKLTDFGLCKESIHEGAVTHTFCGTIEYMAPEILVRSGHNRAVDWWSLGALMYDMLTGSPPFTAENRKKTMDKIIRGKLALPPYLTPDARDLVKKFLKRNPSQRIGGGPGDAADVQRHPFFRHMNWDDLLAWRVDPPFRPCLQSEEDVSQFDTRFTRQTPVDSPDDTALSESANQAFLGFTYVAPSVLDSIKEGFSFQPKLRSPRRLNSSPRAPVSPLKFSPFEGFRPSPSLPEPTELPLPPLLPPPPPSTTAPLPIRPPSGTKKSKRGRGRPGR
GRK4 (human), sequence (P32298 whole entry, looked up): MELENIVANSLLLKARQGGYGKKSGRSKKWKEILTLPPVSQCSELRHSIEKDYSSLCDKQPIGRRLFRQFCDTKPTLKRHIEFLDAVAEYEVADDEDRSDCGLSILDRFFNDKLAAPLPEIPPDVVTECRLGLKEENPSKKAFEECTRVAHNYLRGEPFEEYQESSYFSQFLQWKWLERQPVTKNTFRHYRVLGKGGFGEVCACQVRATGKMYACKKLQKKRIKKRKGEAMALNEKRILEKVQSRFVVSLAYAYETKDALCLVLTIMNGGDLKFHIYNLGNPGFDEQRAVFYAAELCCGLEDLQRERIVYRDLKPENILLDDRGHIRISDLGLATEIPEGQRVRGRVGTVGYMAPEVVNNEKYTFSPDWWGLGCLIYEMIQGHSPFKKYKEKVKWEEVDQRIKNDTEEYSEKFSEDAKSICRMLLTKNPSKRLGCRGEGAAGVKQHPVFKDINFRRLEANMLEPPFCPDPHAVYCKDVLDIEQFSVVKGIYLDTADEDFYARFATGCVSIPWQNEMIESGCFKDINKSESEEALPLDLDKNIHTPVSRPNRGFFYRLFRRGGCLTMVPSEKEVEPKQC
CDK7 CCNH MNAT1 (human), sequence (P50613 whole entry, looked up): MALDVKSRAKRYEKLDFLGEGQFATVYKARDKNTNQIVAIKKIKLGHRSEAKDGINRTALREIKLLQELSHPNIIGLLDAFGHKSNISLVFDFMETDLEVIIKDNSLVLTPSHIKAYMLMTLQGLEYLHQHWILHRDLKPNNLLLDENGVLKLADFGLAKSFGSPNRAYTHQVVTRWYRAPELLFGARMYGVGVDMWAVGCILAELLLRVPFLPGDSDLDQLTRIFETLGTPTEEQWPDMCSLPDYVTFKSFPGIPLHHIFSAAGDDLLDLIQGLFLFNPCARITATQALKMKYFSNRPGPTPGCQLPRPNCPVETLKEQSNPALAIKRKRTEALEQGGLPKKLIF
CDK7 CCNH MNAT1 (human), sequence (P51946 whole entry, looked up): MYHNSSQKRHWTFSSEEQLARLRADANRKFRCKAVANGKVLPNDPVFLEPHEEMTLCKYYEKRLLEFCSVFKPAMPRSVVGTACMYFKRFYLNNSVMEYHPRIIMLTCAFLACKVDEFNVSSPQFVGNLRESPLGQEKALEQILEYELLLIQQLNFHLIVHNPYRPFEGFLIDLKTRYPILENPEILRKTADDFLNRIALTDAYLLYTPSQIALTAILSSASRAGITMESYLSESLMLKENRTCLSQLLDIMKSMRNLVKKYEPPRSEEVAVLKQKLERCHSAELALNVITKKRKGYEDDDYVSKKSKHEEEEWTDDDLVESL
CDK7 CCNH MNAT1 (human), sequence (P51948 whole entry, looked up): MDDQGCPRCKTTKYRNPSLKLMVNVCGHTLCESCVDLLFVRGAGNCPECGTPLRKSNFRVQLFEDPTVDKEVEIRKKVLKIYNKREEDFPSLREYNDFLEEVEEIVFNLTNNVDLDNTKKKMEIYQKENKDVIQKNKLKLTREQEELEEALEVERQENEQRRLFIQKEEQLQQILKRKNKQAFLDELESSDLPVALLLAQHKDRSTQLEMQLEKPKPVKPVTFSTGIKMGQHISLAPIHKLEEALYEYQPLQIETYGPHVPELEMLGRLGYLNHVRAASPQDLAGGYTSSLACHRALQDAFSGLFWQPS
CSNK1D (human), sequence (P48730 whole entry, looked up): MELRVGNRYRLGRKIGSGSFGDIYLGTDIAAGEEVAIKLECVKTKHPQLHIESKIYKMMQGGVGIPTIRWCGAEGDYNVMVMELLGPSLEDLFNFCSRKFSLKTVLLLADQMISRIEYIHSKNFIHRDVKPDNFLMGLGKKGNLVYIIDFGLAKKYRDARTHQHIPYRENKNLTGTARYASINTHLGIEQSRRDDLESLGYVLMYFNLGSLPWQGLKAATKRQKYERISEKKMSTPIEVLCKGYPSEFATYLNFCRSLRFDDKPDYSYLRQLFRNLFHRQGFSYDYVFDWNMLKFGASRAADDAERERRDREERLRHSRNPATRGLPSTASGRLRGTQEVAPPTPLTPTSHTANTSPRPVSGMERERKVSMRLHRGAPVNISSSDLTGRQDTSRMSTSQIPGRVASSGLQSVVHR
STK17A (human), sequence (Q9UEE5 whole entry, looked up): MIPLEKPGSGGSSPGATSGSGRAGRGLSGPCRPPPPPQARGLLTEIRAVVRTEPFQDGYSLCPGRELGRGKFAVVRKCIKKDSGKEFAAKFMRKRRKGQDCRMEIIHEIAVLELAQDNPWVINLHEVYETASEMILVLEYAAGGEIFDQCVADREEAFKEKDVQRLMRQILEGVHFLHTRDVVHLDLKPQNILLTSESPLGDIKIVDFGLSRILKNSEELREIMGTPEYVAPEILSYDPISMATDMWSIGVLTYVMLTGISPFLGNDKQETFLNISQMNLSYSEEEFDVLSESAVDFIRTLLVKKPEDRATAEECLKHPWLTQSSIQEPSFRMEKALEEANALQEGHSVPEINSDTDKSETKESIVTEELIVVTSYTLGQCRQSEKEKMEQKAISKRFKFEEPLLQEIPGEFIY
MST4 (human), sequence (Q9P289 whole entry, looked up): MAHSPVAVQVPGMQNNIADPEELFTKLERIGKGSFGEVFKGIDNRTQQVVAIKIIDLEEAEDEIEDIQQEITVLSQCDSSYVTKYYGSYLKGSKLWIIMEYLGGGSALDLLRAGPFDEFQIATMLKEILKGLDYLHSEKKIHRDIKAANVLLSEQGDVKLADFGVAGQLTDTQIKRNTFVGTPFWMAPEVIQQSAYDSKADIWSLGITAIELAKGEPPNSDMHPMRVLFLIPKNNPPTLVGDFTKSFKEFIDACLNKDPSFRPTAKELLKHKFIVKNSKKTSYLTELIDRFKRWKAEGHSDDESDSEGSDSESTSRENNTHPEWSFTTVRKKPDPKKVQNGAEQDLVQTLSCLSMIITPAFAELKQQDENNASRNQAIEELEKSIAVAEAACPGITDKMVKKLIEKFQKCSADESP
STK11 (human), sequence (Q15831 whole entry, looked up): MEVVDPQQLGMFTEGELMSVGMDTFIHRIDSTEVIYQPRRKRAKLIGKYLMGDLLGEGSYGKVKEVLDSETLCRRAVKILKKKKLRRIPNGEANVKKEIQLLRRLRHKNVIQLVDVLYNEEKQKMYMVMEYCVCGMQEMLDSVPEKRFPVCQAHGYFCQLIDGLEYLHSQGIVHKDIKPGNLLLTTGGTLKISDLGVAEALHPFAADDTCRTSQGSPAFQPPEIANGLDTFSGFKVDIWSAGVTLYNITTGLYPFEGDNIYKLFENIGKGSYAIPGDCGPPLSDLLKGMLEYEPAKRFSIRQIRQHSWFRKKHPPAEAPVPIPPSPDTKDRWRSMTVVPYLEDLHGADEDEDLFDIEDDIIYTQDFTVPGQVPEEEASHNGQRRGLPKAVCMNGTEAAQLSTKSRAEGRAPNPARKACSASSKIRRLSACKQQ
EPHA7 (human), sequence (Q15375 whole entry, looked up): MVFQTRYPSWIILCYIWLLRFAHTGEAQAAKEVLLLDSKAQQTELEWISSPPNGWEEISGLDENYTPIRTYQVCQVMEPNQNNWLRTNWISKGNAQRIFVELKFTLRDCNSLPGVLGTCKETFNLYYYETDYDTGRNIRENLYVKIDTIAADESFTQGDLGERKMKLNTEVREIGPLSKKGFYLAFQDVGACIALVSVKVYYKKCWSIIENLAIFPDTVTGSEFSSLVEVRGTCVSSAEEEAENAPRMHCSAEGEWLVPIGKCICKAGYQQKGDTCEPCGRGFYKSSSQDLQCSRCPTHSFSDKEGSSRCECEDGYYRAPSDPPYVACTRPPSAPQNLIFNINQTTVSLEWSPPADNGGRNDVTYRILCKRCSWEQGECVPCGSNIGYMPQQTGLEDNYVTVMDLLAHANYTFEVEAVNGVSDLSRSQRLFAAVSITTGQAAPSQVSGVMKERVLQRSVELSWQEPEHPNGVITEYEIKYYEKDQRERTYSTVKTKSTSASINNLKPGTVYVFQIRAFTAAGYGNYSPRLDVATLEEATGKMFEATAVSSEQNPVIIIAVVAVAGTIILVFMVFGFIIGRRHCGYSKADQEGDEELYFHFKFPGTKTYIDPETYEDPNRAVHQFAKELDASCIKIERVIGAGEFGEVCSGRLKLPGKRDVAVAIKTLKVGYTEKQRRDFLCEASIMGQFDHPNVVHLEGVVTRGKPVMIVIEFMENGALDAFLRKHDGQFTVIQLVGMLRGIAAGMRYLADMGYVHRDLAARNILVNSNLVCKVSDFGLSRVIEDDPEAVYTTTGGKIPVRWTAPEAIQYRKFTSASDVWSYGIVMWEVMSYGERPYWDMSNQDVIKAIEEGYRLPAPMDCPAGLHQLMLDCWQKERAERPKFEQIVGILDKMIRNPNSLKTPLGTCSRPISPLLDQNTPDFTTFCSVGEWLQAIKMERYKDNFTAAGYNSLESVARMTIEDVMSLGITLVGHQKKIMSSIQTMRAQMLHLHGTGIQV

Oc1cccc(-c2nc(N3CCOCC3)c3oc4ncccc4c3n2)c1
residual activity (AKT2 (human)): 99.1% | residual activity (BLK (human)): 101% | residual activity (BMX (human)): 101% | residual activity (CDK4 CCND3 (human)): 92.5% | residual activity (CDK5 CDK5R1 p25 (human)): 77.9% | residual activity (CDK7 CCNH MNAT1 (human)): 99.9% | residual activity (CSNK1D (human)): 91.3% | residual activity (DCLK2 (human)): 102% | residual activity (DDR2 (human)): 94.6% | residual activity (DMPK (human)): 99.5% | residual activity (EPHA7 (human)): 93.9% | residual activity (EPHA8 (human)): 93.9% | residual activity (FGFR1 (human)): 91.7% | residual activity (FGFR3 (human)): 101% | residual activity (GRK4 (human)): 102% | residual activity (GSG2 (human)): 90.3% | residual activity (HCK (human)): 91.9% | residual activity (HIPK2 (human)): 102% | residual activity (IKBKE (human)): 98.8% | residual activity (INSRR (human)): 114% | residual activity (MAPK12 (human)): 93.4% | residual activity (MAPK13 (human)): 97.4% | residual activity (MARK4 (human)): 93.4% | residual activity (MST4 (human)): 98.6% | residual activity (NEK7 (human)): 97.3% | residual activity (PAK4 (human)): 90.7% | residual activity (PKN2 (human)): 87.6% | residual activity (PLK1 (human)): 97.9% | residual activity (PRKCB1 (human)): 97.8% | residual activity (PRKCZ (human)): 99.1% | residual activity (RPS6KA5 KD2 (human)): 86.5% | residual activity (RPS6KB2 (human)): 95.8% | residual activity (SGK2 (human)): 96.7% | residual activity (SRC (human)): 97.2% | residual activity (STK11 (human)): 86.4% | residual activity (STK17A (human)): 93.8% | residual activity (TAOK1 (human)): 91.6% | residual activity (TGFBR2 (human)): 102% | residual activity (WEE1 (human)): 81.6% | residual activity (WNK2 (human)): 119% | residual activity (YES1 (human)): 94.3% | residual activity (ZAP70 (human)): 91.4%
